Here are results for four compounds from PubChem BioAssay (NCI).

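Each compound was tested at five concentrations against cells in 96-well plates for 48 hours. GI50 marks 50% less growth. TGI marks complete inhibition of growth.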 Where only a bound is given, the exact number is not on record here.

Among the test systems are ACHN renal; HCC-2998 colon; HCT-116 colon; HOP-62 NSCLC; KM12 colon; M14 melanoma; NCI-H23 lung; OVCAR-3 ovarian; OVCAR-4 ovarian; SW-620 colon.
Common to all, as to test: DTP human tumour cell line panel, 48 h

In the case of `C=C(C)[C@@H]1CC[C@]2(C)[C@H](CC=C3[C@@H]4[C@H](C)[C@@H](C)CC[C@]4(CO)CC[C@]32C)[C@@]1(C)CCCN`, the GI50 is 1.42 µM in the assay with ACHN renal; 0.873 µM in the assay on HCC-2998 colon; 0.807 µM in the assay on HCT-116 colon; 1.08 µM in the assay on HOP-62 NSCLC; 0.908 µM in the assay with KM12 colon; 0.846 µM in the assay on M14 melanoma. Moreover, the GI50 in the assay on NCI-H23 lung was 1.34 µM; in the assay with OVCAR-3 ovarian, 0.934 µM; with OVCAR-4 ovarian, 0.86 µM; in the assay on SW-620 colon it was 1.01 µM. For the same compound, the concentration for total growth inhibition (TGI) in the assay with ACHN renal turned out to be 3.4 µM; in the assay with HCC-2998 colon, 1.62 µM; in the assay on HCT-116 colon, 1.54 µM; in the assay on HOP-62 NSCLC, 2.36 µM; in the assay on KM12 colon, 1.65 µM; in the assay with M14 melanoma, 1.76 µM. Moreover, the concentration for total growth inhibition (TGI) with NCI-H23 lung was 4 µM; in the assay with OVCAR-3 ovarian, 1.79 µM; in the assay with OVCAR-4 ovarian, 2.85 µM; in the assay with SW-620 colon, 2.11 µM.

Regarding `c1ccc(COc2cccc3cccnc23)cc1`, the total growth inhibition concentration (TGI) with ACHN renal, in the assay with HCC-2998 colon, in the assay with HCT-116 colon, in the assay with HOP-62 NSCLC, in the assay on KM12 colon and with M14 melanoma was more than 100 µM each time. Further, the total growth inhibition concentration (TGI) in the assay with NCI-H23 lung, in the assay on OVCAR-3 ovarian, with OVCAR-4 ovarian and in the assay with SW-620 colon was more than 100 µM in each case.

In the case of `C[C@H]1CC2=CC(=O)CC[C@]2(C)[C@H]2CC[C@@]3(C)[C@@H](CC[C@]3(C)O)[C@H]12`, the GI50 in the assay on ACHN renal was 27.6 µM; with HCC-2998 colon, 43.8 µM; in the assay on HCT-116 colon, 31.2 µM; in the assay on HOP-62 NSCLC, 33.5 µM; with KM12 colon, 27.5 µM; in the assay with M14 melanoma, 27.2 µM. The GI50 in the assay with NCI-H23 lung is 38.2 µM; in the assay on OVCAR-3 ovarian, 33.9 µM; with OVCAR-4 ovarian it was 38 µM; in the assay with SW-620 colon, 35.8 µM. Further, the TGI in the assay on ACHN renal is more than 100 µM; with HCC-2998 colon it was more than 100 µM; with HCT-116 colon it was more than 95.2 µM; with HOP-62 NSCLC, more than 76.1 µM; in the assay with KM12 colon it was more than 75.4 µM; in the assay with M14 melanoma, more than 78.9 µM. Moreover, the TGI is more than 100 µM in the assay on NCI-H23 lung, more than 91.8 µM in the assay on OVCAR-3 ovarian, more than 100 µM in the assay on OVCAR-4 ovarian and more than 100 µM in the assay with SW-620 colon.

Take `Cc1ccc(S(=O)(=O)c2ccsc2N)cc1`: the GI50 in the assay on ACHN renal, in the assay on HCC-2998 colon, in the assay with HCT-116 colon, with HOP-62 NSCLC, in the assay on KM12 colon and in the assay on M14 melanoma was more than 100 µM throughout. Moreover, the GI50 in the assay on NCI-H23 lung was more than 100 µM; with OVCAR-3 ovarian, 56.1 µM; in the assay on OVCAR-4 ovarian, 58.3 µM; in the assay with SW-620 colon it was more than 100 µM. The total growth inhibition concentration (TGI) in the assay with ACHN renal, in the assay on HCC-2998 colon, with HCT-116 colon, in the assay with HOP-62 NSCLC, with KM12 colon and with M14 melanoma was more than 100 µM in each case. The TGI with NCI-H23 lung, in the assay on OVCAR-3 ovarian, in the assay on OVCAR-4 ovarian and in the assay with SW-620 colon was more than 100 µM each time.

The GI50 is the concentration that inhibits growth by half. As a reminder, the TGI is the concentration giving total growth inhibition.
